Data from BigSolDB 2.1.

COc1ccccc1N1CCN(CC(O)COc2cccc3ccccc23)CC1 (centres undefined)
solubility (mole fraction)
Details	273.15 K	278.15 K	283.15 K	288.15 K	293.15 K	298.15 K	303.15 K	308.15 K	313.15 K
in acetone	0.00318	0.00399	0.00481	0.00579	0.00676	0.00782	0.00894	0.0102	0.0118
in acetonitrile	0.00113	0.00132	0.00156	0.00182	0.00208	0.00244	0.0028	0.00321	0.00372
in ethanol	0.000817	0.000955	0.00112	0.00131	0.00152	0.00175	0.00198	0.00229	0.00266
in ethyl acetate	0.00438	0.00503	0.00585	0.0067	0.00768	0.0087	0.00998	0.0112	0.0126
in methanol	0.00056	0.000636	0.000719	0.000822	0.000922	0.00104	0.00118	0.00133	0.0015
in toluene	0.00534	0.00633	0.00727	0.00847	0.00978	0.0113	0.0129	0.0149	0.017
